Patent publication US5541116A, “Method for the stabilization of endogenous, physiologically active peptides” (B.R.A.H.M.S. Diagnostica GmbH, priority 1991, dated 1996)
Read-outs that look alike come from different tables or passages of the source. Where a SMILES comes first, the peptide text is derived from it. [ ]: non-standard residue; d: D form. The star is where a group is joined. Sta = CC(C)C[C@H](N)[C@@H](O)CC(=O)O; Isovaleryl = CC(C)CC(=O)*

Experiments:
[1] = tested on: endogenous proteases which are active in human serum and plasma; assay: Hydrolysis of 125I-ACTH 1-39 in human serum or EDTA plasma with protease inhibitors (RP-HPLC, radioactivity detection); assay type: biochemical
[2] = tested on: endogenous proteases which are active in human serum and plasma; assay: Variation of inhibitor concentrations to find the minimum needed for adequate protection of the peptides; assay type: biochemical; conditions: in the presence of the other inhibitors; serum or plasma sample
Text: To determine the concentrations of the individual inhibitors which are required for adequate protection of the peptides, in the presence of the other inhibitors, the concentrations were repeatedly varied.

[3] = 125I-ACTH 1-39, inhibitor 1 mM, EDTA plasma, 22° C., 25 h
[4] = 125I-ACTH 1-39, inhibitor 1 mM, serum, 22° C., 18 h
[5] = 125I-ACTH 1-39, inhibitor 100 μM, EDTA plasma, 22° C., 25 h
[6] = 125I-ACTH 1-39, inhibitor 100 μM, serum, 22° C., 18 h

CC(C)C[C@H](NC(=O)[C@@H](O)[C@H](N)Cc1ccccc1)C(=O)O [Bestatin]
% of hydrolysis rate of the control, in EDTA plasma [1, 3]: 27% | % of hydrolysis rate of the control, in serum [1, 4]: 44%

CC(C)C[C@H](NC(=O)N[C@H](C(=O)N[C@@H](CCC(N)=O)C(=O)N[C@@H](C)C=O)[C@@H]1CCNC(=N)N1)C(=O)O [Elastatinal]
% of hydrolysis rate of the control, in EDTA plasma [1, 5]: 100% | % of hydrolysis rate of the control, in serum [1, 6]: 97%

O=S(=O)(F)Cc1ccccc1 [Phenylmethylsulphonyl fluoride]
% of hydrolysis rate of the control, in EDTA plasma [1]: 100 | % of hydrolysis rate of the control, in serum [1]: 97

CC(C)C[C@H](NP(=O)(O)O[C@@H]1O[C@@H](C)[C@H](O)[C@@H](O)[C@H]1O)C(=O)N[C@@H](Cc1c[nH]c2ccccc12)C(=O)O [Phosphoramidone]
% of hydrolysis rate of the control, in EDTA plasma [1, 3]: 85% | % of hydrolysis rate of the control, in serum [1, 4]: 98%

Antithrombin III
% of hydrolysis rate of the control, in EDTA plasma ([1]; 125I-ACTH 1-39, inhibitor 0.1 unit/ml, EDTA plasma, 22° C., 25 h): 79% | % of hydrolysis rate of the control, in serum ([1]; 125I-ACTH 1-39, inhibitor 0.1 unit/ml, serum, 22° C., 18 h): 107%

CC(C)C[C@@H](N)[C@H](O)C(=O)N[C@H](C(=O)N[C@H](C(=O)N[C@@H](CC(=O)O)C(=O)O)C(C)C)C(C)C [Amastatin]
% of hydrolysis rate of the control, in EDTA plasma [1, 5]: 3% | % of hydrolysis rate of the control, in serum [1, 6]: 17%

N=C(N)c1ccccc1 [Benzamidine]
% of hydrolysis rate of the control, in EDTA plasma [1, 3]: 80% | % of hydrolysis rate of the control, in serum [1, 4]: 84%

CC(=O)N[C@@H](CC(C)C)C(=O)N[C@@H](CC(C)C)C(=O)N[C@H](C=O)CCCNC(=N)N [Leupeptin]
% of hydrolysis rate of the control, in EDTA plasma [1]: 27 | % of hydrolysis rate of the control, in serum [1]: 41 | minimum concentration present in the sample for effective protection [2]: 50 µM

Heparin
% of hydrolysis rate of the control, in EDTA plasma ([1]; 125I-ACTH 1-39, inhibitor 5 mg/ml, EDTA plasma, 22° C., 25 h): 103% | % of hydrolysis rate of the control, in serum ([1]; 125I-ACTH 1-39, inhibitor 5 mg/ml, serum, 22° C., 18 h): 126%

CC(C)CC(=O)N[C@H](C(=O)N[C@H](C(=O)N[C@@H](CC(C)C)[C@@H](O)CC(=O)N[C@@H](C)C(=O)N[C@@H](CC(C)C)[C@@H](O)CC(=O)O)C(C)C)C(C)C [Pepstatin] (Isovaleryl-VV[Sta]A[Sta]-OH)
% of hydrolysis rate of the control, in EDTA plasma [1, 5]: 79% | % of hydrolysis rate of the control, in serum [1, 6]: 105%

O=S(=O)(O)c1cc[c]([Hg][Cl])cc1 [p-Choloromercuryphenylsulphonic acid, p-Choloromercury-phenylsulphonic acid]
% of hydrolysis rate of the control, in EDTA plasma [1]: 62 | % of hydrolysis rate of the control, in serum [1]: 94

CCN1C(=O)C=CC1=O [N-Ethylmaleimide]
% of hydrolysis rate of the control, in EDTA plasma ([1]; 125I-ACTH 1-39, inhibitor 2 mM, EDTA plasma, 22° C., 25 h): 54% | % of hydrolysis rate of the control, in serum ([1]; 125I-ACTH 1-39, inhibitor 2 mM, serum, 22° C., 18 h): 48%

B1: Trypsin inhibitor (soybean): soybean trypsin inhibitor (Sigma T-900) (protein, UniProt P01070 25-205, looked up)
Trypsin inhibitor A: DFVLDNEGNPLENGGTYYILSDITAFGGIRAAPTGNERCPLTVVQSRNELDKGIGTIISSPYRIRFIAEGHPLSLKFDSFAVIMLCVGIPTEWSVVEDLPEGPAVKIGENKDAMDGWFRLERVSDDEFNNYKLVFCPQQAEDDKCGDIGISIDHDDGTRRLVVSKNKPLVVQFQKLDKESL
% of hydrolysis rate of the control, in EDTA plasma ([1]; 125I-ACTH 1-39, inhibitor 0.1 mg/ml, EDTA plasma, 22° C., 25 h): 71% | % of hydrolysis rate of the control, in serum ([1]; 125I-ACTH 1-39, inhibitor 0.1 mg/ml, serum, 22° C., 18 h): 78%
